Laboratory results published in patent US4767749A, “Ester of (triarylphosphoranylidene)carbamic acid having diuretic and ability to lower plasma renin properties” (American Cyanamid Company, priority 1986, dated 1988).

These compounds were tested on spontaneously hypertensive rats (SHR) (assay: Diuretic activity in spontaneously hypertensive rats). Conditions: 100 mg/kg by gavage with 0.9% sodium chloride loading 25 ml/kg; 0-5 hour urine.
Format: in vivo, male spontaneously hypertensive rats (Okamoto strain)
Procedure: The diuretic activity of the compounds of this invention was also determined according to the method of Chan, P. S. and Poorvin, D., Sequential method for combined screening antihypertensive and diuretic agents in the same spontaneously hypertensive rat. Clinical and Experimental Hypertension, 1(6), 817-830 (1979).
Male spontaneously hypertensive rats (SHR) of Okamoto strain, 16 weeks old, Taconic Farms Inc. were used in the test. These rats were kept on Purina laboratory chow and tap water ad libitum for 8 weeks before use. One male adult rat (about 300 g) was dosed by gavage with a test compound at 100 mg/kg together with 0.9% sodium chloride loading at 25 ml/kg at zero hour. The test compound was suspended in 3% preboiled starch at 50 mg/ml. The rat was put in a metabolism cage. The 0-5 hour urine was collected and urinary sodium and potassium were determined using a Beckman Astra 4. The effects of representative compounds of the invention according to this test appear in Table III expressed in milliequivalents (mEQ) of urinary sodium and potassium excreted.

Row | Compound | Potassium (urinary excretion) [mEQ/5 Hours] | Sodium (urinary excretion) [mEQ/5 Hours] | Volume (urine) [mL]
1 | CC(=O)CCCOC(=O)N=P(c1ccccc1)(c1ccccc1)c1ccccc1 [(triphenylphosphoranylidene)carbamic acid, 4-oxo-pentan-1-yl ester] | 0.58 | 1.16 | 13.3
2 | O=C(N=P(c1ccccc1)(c1ccccc1)c1ccccc1)OC1CCCC1 [(triphenylphosphoranylidene)carbamic acid, cyclopentyl ester] | 0.80 | 1.48 | 14.0
3 | C[C@@H]1CCC[C@H]1OC(=O)N=P(c1ccccc1)(c1ccccc1)c1ccccc1 (relative stereo) [(triphenylphosphoranylidene)carbamic acid, trans-2-methylcyclopentyl ester] | 0.68 | 1.55 | 14.3
4 | CC1(OC(=O)N=P(c2ccccc2)(c2ccccc2)c2ccccc2)CCCC1 [(Triphenylphosphoranylidene)carbamic acid, 1-methylcyclopentyl ester] | 0.86 | 1.49 | 14.8
5 | CC#CCOC(=O)N=P(c1ccccc1)(c1ccccc1)c1ccccc1 [(triphenylphosphoranylidene)carbamic acid, 2-butynyl ester] | 0.57 | 1.15 | 10.0
6 | CCCC1(OC(=O)N=P(c2ccccc2)(c2ccccc2)c2ccccc2)CCCC1 [(triphenylphosphoranylidene)carbamic acid, 1-propylcyclopentyl ester] | 0.63 | 1.14 | 10.3
7 | COC(=O)N=P(c1ccccc1)(c1ccccc1C)c1ccccc1C [[Bis(2-methylphenyl)phenylphosphoranylidene]carbamic acid, methyl ester] | 0.76 | 1.45 | 13.5
8 | CCO[C@@H]1CCC[C@H]1OC(=O)N=P(c1ccccc1)(c1ccccc1)c1ccccc1 (relative stereo) [(triphenylphosphoranylidene)carbamic acid, trans-2-ethoxycyclopentyl ester] | 0.73 | 1.38 | 13.3
9 | O=C(N=P(c1ccccc1)(c1ccccc1)c1ccccc1)OC1CCOCC1 [(triphenylphosphoranylidene)carbamic acid, tetrahydro-2 --H--pyran-4-yl ester] | 0.64 | 1.60 | 15.3
10 | C#CCOC(=O)N=P(c1ccccc1)(c1ccccc1)c1ccccc1 [(triphenylphosphoranylidene)carbamic acid, 2-propynyl ester] | 0.58 | 1.76 | 15.5
11 | O=C(N=P(c1ccccc1)(c1ccccc1)c1ccccc1C(F)(F)F)OC1CCOC1 (stereo not drawn) [[diphenyl[2-(trifluoromethyl)phenyl]phosphoranylidene]carbamic acid, tetrahydro-3-furanyl ester] | 0.63 | 1.64 | 16.3
12 | O=C(N=P(c1ccccc1)(c1ccccc1)c1ccccc1)OCC1CC1 [(Triphenylphosphoranylidene)carbamic acid, cyclopropylmethyl ester] | 0.57 | 2.00 | 19.5
13 | CO[C@@H]1CCC[C@H]1OC(=O)N=P(c1ccccc1)(c1ccccc1)c1ccccc1 (relative stereo) [(triphenylphosphoranylidene)carbamic acid, trans-2-methoxycyclopentyl ester] | 0.72 | 1.83 | 17.0
14 | O=C(N=P(c1ccccc1)(c1ccccc1)c1ccccc1)OC1CCc2ccccc21 (stereo not drawn) [(Triphenylphosphoranylidene)carbamic acid, 2,3-dihydro-1 --H--inden-1-yl ester] | 0.87 | 1.41 | 13.0
15 | CCOC(=O)N=P(c1ccccc1)(c1ccccc1)c1cccc(F)c1 [[[(3-fluorophenyl)diphenylphosphoranylidene]carbamic acid, ethyl ester] | 0.62 | 2.44 | 24.0
16 | CCC1(OC(=O)N=P(c2ccccc2)(c2ccccc2)c2ccccc2)CCCC1 [(triphenylphosphoranylidene)carbamic acid, 1-ethylcyclopentyl ester] | 1.01 | 1.34 | 12.5
